How the values were obtained:
Bevacizumab [1] = target: T1, Bevacizumab (Homo sapiens, UniProt P01857); experiment: Microtiter plate chromatography of resins: binding and elution of Bevacizumab
T1 construct: 0.5 mg/ml IgG in PBS pH 7.3; ligand immobilized on SEPHAR; Bevacizumab Yield; other: mass eluted (glycine pH 2.5) / mass injected; kd (dissociation constant, Langmuir isotherm); other: Bevacizumab 0.05-5 mg/ml in PBS pH 7.3, 25° C., at least 3 h; qm (maximum capacity); other: mg Bevacizumab per ml of resin; Langmuir isotherm; t0; fused on or other part: Humanized anti-VEGF-A VH domain joined N-terminally to the IGHG1 constant region (engineered, no UniProt entry)
Description: (§1) Resins were assessed in packed mode by microtiter plate chromatography. For each column, approximately 30 μl of resin were transferred to a 384-well filter plate and sealed with appropriate top fits. Columns with rProtein A SEPHAROSE 4 FF and MABSORBENT A2P HF were included as controls.
(§2) Either 3.3 cv of whole IgGs dissolved at 0.5 mg ml^−1 in PBS or undiluted host cell proteins (HCP) were injected onto columns.
(§3) Unbound protein was washed from columns with 5 cv of PBS prior to elution with 5 cv of glycine buffer at pH 2.5. […] During injection of samples, speed was reduced to 10 g and centrifugation time increased to 5-10 min. Effluent fractions were collected in 384-well plates and concentrations of protein were analyzed by Bradford assay. Protein masses mi, mft and me (see below) were calculated as the product of fraction volume and measured protein concentration.
(§4) The fraction of bound protein was calculated as the difference between the total mass of protein injected mi and the mass of protein detected in the flowthrough mft, divided by the total mass of protein injected.
(§5) The yield of protein was calculated as the mass of protein eluted me, divided by the mass of protein injected mi.
(§6) The selectivity of resins was calculated as the fraction of bound Bevacizumab antibody BAb, divided by the fraction of bound host cell proteins BHCP.
(§7) The fraction of bound protein and the yield of protein were calculated for each resin based on data for whole IgG-antibodies. In the case of host cell proteins, only the fraction of bound protein is given. Selectivity of resins was calculated from data for Bevacizumab whole IgG and host cell proteins. Due to limited experimental precision, selectivity was truncated for values beyond 10.

Bevacizumab [2] = experiment: as above; conditions: fraction of bound Bevacizumab divided by fraction of bound HCP; truncated for values beyond 10
Description: as §1, §2, §3, §4, §5, §6, §7

Tocilizumab = experiment: Microtiter plate chromatography of resins: binding and elution of Tocilizumab
Description: as §1, §2, §3, §4, §5, §7

Palivizumab = experiment: Microtiter plate chromatography of resins: binding and elution of Palivizumab
Description: as §1, §2, §3, §4, §5, §7

Cetuximab = experiment: Microtiter plate chromatography of resins: binding and elution of Cetuximab
Description: as §1, §2, §3, §4, §5, §7

[3] = system: poly-IgG from human serum (h-poly-IgG); experiment: Microtiter plate chromatography of resins: binding and elution of human poly-IgG
Description: as §1, §2, §3, §4, §5, §7

host cell proteins (HCP) = experiment: Microtiter plate chromatography of resins: binding of host cell proteins; design: species or system CHO cell culture
Description: Flowthrough from protein A chromatography (referred to as host cell proteins) was derived from the supernatant of antibody-producing CHO cell culture in serum-free medium. Coomassie brilliant blue dye reagent for Bradford assay was purchased from Thermo Scientific (Bonn/Germany).
as §1, §2, §3, §4, §7

Bevacizumab [4] = target: T1, Bevacizumab; experiment: Langmuir isotherms by batch adsorption; assay type: binding; conditions: read-out: kd (dissociation constant, Langmuir isotherm); Bevacizumab 0.05-5 mg/ml in PBS pH 7.3, 25° C., at least 3 h
Description: Experiments were performed with Bevacizumab as antibody. Parameters of Langmuir isotherms for purified antibody were determined by batch adsorption experiments in 96-well microtiter plates. In each well, 10 μl of sorbent slurry (50% v/v) were mixed with 100 μl of protein solution. Initial concentrations varied from 0.05-5 mg/ml in phosphate-buffered saline (0.15 M NaCl, 20 mM phosphate buffer, pH 7.3; PBS). Reactions were agitated vigorously at 25° C. for at least 3 h. Afterwards, antibody concentration in the supernatants were measured by Bradford assay. Data was evaluated by direct fitting of the values with the Langmuir isotherm equation (1).
Parameters of Langmuir isotherms, i.e. dissociation constants Kd and maximum capacities qm, were determined from the measured concentrations in the supernatants. Parameters were estimated by numerical fitting of the model equation derived by Chase (1)

[5] = fraction of injected protein bound, 0.5 mg/ml IgG in PBS pH 7.3, ligand immobilized on SEPHAROSE 4 FF
[6] = mass eluted (glycine pH 2.5) / mass injected
[7] = fraction of injected protein bound, 0.5 mg/ml IgG in PBS pH 7.3
[8] = fraction of injected undiluted host cell proteins bound
[9] = L55-73: estimated values based on the knowledge obtained from L01-L54

Row | SMILES | Bevacizumab Bound (Bevacizumab [1]; [5]) [%] | Bevacizumab Yield (Bevacizumab [1]; [6]) [%] | Selectivity (Bevacizumab [2]) | Tocilizumab Bound (Tocilizumab; [7]) [%] | Palivizumab Bound (Palivizumab; [7]) [%] | Cetuximab Bound (Cetuximab; [7]) [%] | h-poly-IgG Bound [3, 7] [%] | Kd (Bevacizumab [4]) [µM] | Bevacizumab Bound (Bevacizumab [1]; [9]) [%] | Bevacizumab Yield (Bevacizumab [1]; [9]) [%] | Tocilizumab Bound (Tocilizumab; [9]) [%] | Palivizumab Bound (Palivizumab; [9]) [%] | Cetuximab Bound (Cetuximab; [9]) [%] | h-poly-IgG Bound [3, 9] [%] | HCP Bound (host cell proteins (HCP); [8]) [%] | HCP Bound (host cell proteins (HCP); [9]) [%]
1 | NCCCn1c(=O)c(=O)[nH]c2cc(C(=O)Nc3nnc(-c4ccco4)s3)ccc21 [Ligand L28, 1-(3-Amino-1-propyl)-2,3-dioxo-1,2,3,4-tetrahydroquinoxaline-6-carboxylic acid N-[5-(2-furyl)-1,3,4-thiadiazol-2-yl]amide] | 100 | 95 | 8.3 | 98 | 58 | 89 | 63 | – | – | – | – | – | – | – | 12 | –
2 | Cc1csc(NC(=O)c2ccc3c(c2)ncn3CCCN)n1 [Ligand L15, 1-(3-Amino-1-propyl)benzimidazole-5-carboxylic acid N-(4-methylthiazol-2-yl) amide] | 100 | 91 | 2.6 | 100 | 100 | 100 | 100 | – | – | – | – | – | – | – | 39 | –
3 | NCCCOc1ccc(C(=O)Nc2nnc(-c3ccco3)s2)cc1 [Ligand L20, 4-[(1-Amino-3-propyl)oxy]benzoic acid N-[5-(2-furyl)-1,3,4-thiadiazol-2-yl] amide] | 100 | 100 | 2.9 | 100 | 100 | 100 | 100 | – | – | – | – | – | – | – | 35 | –
4 | NCCCn1cnc2cc(C(=O)Nc3nc4ccccc4o3)ccc21 [Ligand L08, 1-(3-Amino-1-propyl)benzimidazole-5-carboxylic acid N-(benzoxazol-2-yl) amide] | 100 | 100 | 2.6 | 100 | 91 | 100 | 95 | – | – | – | – | – | – | – | 39 | –
5 | Cn1nc(C(=O)Nc2ccc3c(c2)C(=O)N(CCCN)CCO3)c2ccccc21 [Ligand L03, 4-(3-Amino-1-propyl)-7-[(1-methylindazol-3-yl)carboxamido]-2,3,4,5-tetrahydrobenzo[f][1,4]oxazepin-5-one] | 100 | 92 | 2.2 | 99 | 78 | 99 | – | – | – | – | – | – | – | – | 45 | –
6 | Cn1nc(NC(=O)c2ccc3c(c2)nnn3CCCN)c2ccccc21 [Ligand L06, 1-(3-Amino-1-propyl)benzotriazole-5-carboxylic acid N-(1-methylindazol-3-yl) amide] | 100 | 84 | 3.2 | – | 74 | – | – | – | – | – | – | – | – | – | 31 | –
7 | CCSc1nnc(NC(=O)c2ccc3c(c2)ncn3CCCN)s1 [Ligand L12, 1-(3-Amino-1-propyl)benzimidazole-5-carboxylic acid N-(2-ethylthio-1,3,4-thiadiazol-5-yl) amide] | 100 | 104 | 2.5 | 100 | 100 | 100 | 100 | – | – | – | – | – | – | – | 40 | –
8 | NCCCn1cnc2cc(C(=O)Nc3nc4ccccc4s3)ccc21 [Ligand L10, 1-(3-Amino-1-propyl)benzimidazole-5-carboxylic acid N-(benzothiazol-2-yl) amide] | 100 | 100 | 2.2 | 100 | 100 | 100 | 100 | – | – | – | – | – | – | – | 45 | –
9 | Cc1cnc(NC(=O)c2ccc3c(c2)ncn3CCCN)s1 [Ligand L17, 1-(3-Amino-1-propyl)benzimidazole-5-carboxylic acid N-(5-methylthiazol-2-yl) amide] | 100 | 100 | 2.9 | 100 | 88 | 100 | 89 | – | – | – | – | – | – | – | 34 | –
10 | NCCCn1cnc2cc(C(=O)Nc3nnc(-c4ccncc4)s3)ccc21 [Ligand L21, 1-(3-Amino-1-propyl)benzimidazole-5-carboxylic acid N-[5-(4-pyridyl)-1,3,4-thiadiazol-2-yl]amide] | 100 | 100 | 10.0 | 98 | 85 | 100 | 82 | – | – | – | – | – | – | – | 2 | –

Now from value to compound, other results behind:

Row | Bevacizumab Bound (Bevacizumab [1]; [5]) [%] | Bevacizumab Yield (Bevacizumab [1]; [6]) [%] | Selectivity (Bevacizumab [2]) | Tocilizumab Bound (Tocilizumab; [7]) [%] | Palivizumab Bound (Palivizumab; [7]) [%] | Cetuximab Bound (Cetuximab; [7]) [%] | h-poly-IgG Bound [3, 7] [%] | Kd (Bevacizumab [4]) [µM] | Bevacizumab Bound (Bevacizumab [1]; [9]) [%] | Bevacizumab Yield (Bevacizumab [1]; [9]) [%] | Tocilizumab Bound (Tocilizumab; [9]) [%] | Palivizumab Bound (Palivizumab; [9]) [%] | Cetuximab Bound (Cetuximab; [9]) [%] | h-poly-IgG Bound [3, 9] [%] | SMILES | HCP Bound (host cell proteins (HCP); [8]) [%] | HCP Bound (host cell proteins (HCP); [9]) [%]
11 | 100 | 106 | 2.9 | 99 | 95 | 100 | 99 | – | – | – | – | – | – | – | NCCCOc1ccc(C(=O)Nc2nc(-c3ccccn3)cs2)cc1 [Ligand L38, 4-[(1-Amino-3-propyl)oxy]benzoic acid N-[4-(2-pyridyl)thiazol-2-yl] amide] | 35 | –
12 | 100 | 104 | 3.4 | 100 | 100 | 100 | 100 | – | – | – | – | – | – | – | NCCCn1cnc2cc(C(=O)Nc3nnc(C4CC4)s3)ccc21 [Ligand L35, 1-(3-Amino-1-propyl)benzimidazole-5-carboxylic acid N-(2-cyclopropyl-1,3,4-thiadiazol-5-yl) amide] | 29 | –
13 | 100 | 87 | 4.0 | 100 | 100 | 100 | 100 | – | – | – | – | – | – | – | NCCOCCOc1ccc(C(=O)Nc2nnc(-c3ccco3)s2)cc1 [Ligand L37, 4-(5-Amino-3-oxa-1-pentyloxy)benzoic acid N-[5-(2-furyl)-1,3,4-thiadiazol-2-yl] amide] | 25 | –
14 | 100 | 104 | 10.0 | 85 | 78 | 100 | 78 | – | – | – | – | – | – | – | Cc1ccc(NC(=O)c2ccc3c(c2)ncn3CCCN)nn1 [Ligand L34, 1-(3-Amino-1-propyl)benzimidazole-5-carboxylic acid N-(6-methylpyridazin-3-yl) amide] | 10 | –
15 | 100 | – | – | – | – | – | – | 713 | – | – | – | – | – | – | NCCCn1cc(-c2ccc(C(=O)Nc3nnc(-c4ccco4)s3)cc2)nn1 [Ligand L48] | – | –
16 | – | – | – | – | – | – | – | – | 100 | >80 | >95 | >80 | 100 | >80 | Cc1nc2cc(C(=O)Nc3ncc(-c4ccco4)s3)ccc2n1CCCN [Ligand L63, 1-(3-Amino-1-propyl)-2-methylbenzimidazole-5-carboxylic acid N-[5-(2-furyl)thiazol-2-yl] amide] | – | <20

Source: patent publication US9745339B2 (GRAFFINITY PHARMACEUTICALS GMBH, priority 2012, dated 2017)
